# Columns and labels:
# [1] = tested on: endogenous γ 8-containing AMPA receptor currents; experiment: Whole-cell electrophysiology on acutely-dissociated mouse hippocampal neurons; assay type: cell-based; details: 10 mM glutamate, 500 ms, held at −60 mV
# Protocol: The effects of selected compounds upon endogenous γ 8-containing AMPA receptor currents was evaluated using whole-cell electrophysiology on acutely-dissociated mouse hippocampal neurons. Hippocampus was chosen for this assay, since CACNG8 (the protein encoded by this gene is a type I transmembrane AMPA receptor regulatory protein i.e., TARP) is preferentially enriched in this brain region (Tomita et al. (2003). “Functional studies and distribution define a family of transmembrane AMPA receptor regulatory proteins.” J Cell Biol 161(4): 805-816.2003).
# Hippocampi were dissected from C57black6 mice at 4-12 weeks postnatal, following the protocol described by Brewer (Brewer, G. J. (1997). “Isolation and culture of adult rat hippocampal neurons.” Journal of Neuroscience Methods 71(2): 143-155). The following is a brief summary of the procedure. Mice were asphyxiated with CO2 then decapitated. The brain was rapidly removed, then placed into ice-cold HABG medium. The recipe for HABG medium was: HibernateA supplemented with 2% B27 and 0.5 mM Glutamax (all reagents from Life Technologies). Hippocampi were micro-dissected from the brains, then washed with HABG without calcium (Hibernate A minus Calcium, BrainBits; 2% B27, Life Technologies; 0.5 mM glutamax, Life Technologies).
# The hippocampi were then transferred to HABG without calcium, supplemented with 2 mg/mL papain (Worthington Biochemical). They were incubated at 30° C. on a roller for 40 min, then gently triturated with a fire-polished glass pipette. The supernatant containing dissociated neurons was collected, then centrifuged for 2 min at 200 g. The cell pellet was collected, and then resuspended in 8 mL of HABG. Live cells were counted, then plated onto 12 mm glass coverslips in HABG (2 mL) in 24-well plates at a density of 50-100 cells per coverslip. These cells were maintained at room temperature until use.
# Whole-cell electrophysiology was performed using 1.5 mm diameter glass capillary tubes (World Precision Instruments TW150-4), pulled to a fine tip with a Sutter P-97 micropipette puller. The intracellular buffer was 90 mM KF, 30 mM KCl, 10 mM HEPES, and 5 mM EGTA, pH 7.4, 290 mOs. The extracellular buffer was 135 mM NaCl, 4 mM KCl, 2 mM CaCl2), 1 mM MgCl2, 5 mM glucose, 10 mM HEPES, pH 7.4, 300 mOs. The open-tip resistances of the micropipettes using these solutions were 2-4MΩ. Whole-cell recordings of neuron cell bodies were performed in voltage-clamp mode using an Axon Axopatch 200B amplifier. Whole-cell current was measured holding the interior of the cell at −60 mV, using a 5 kHz lowpass filter. The cells were continuously perfused through 7 mm square glass barrels using a solenoid-controlled solution switching device (Warner Instruments, PF-77B). The peak current in response to a 500 ms exposure to 10 mM glutamate every 5 seconds was measured, before and after exposure to test compound.
# For analysis, the mean peak current of 5 traces in the presence of test compound was divided by the mean peak current of 5 traces prior to the addition of test compound. Compounds were tested at concentrations at least ten times higher than their estimated potency in the calcium flux assay, in order to ensure near-saturating occupancy of the receptor.
# The table below summarizes the results of this electrophysiological assay. Peak current (% control) is mean of the peak response to glutamate in the presence of the indicated compound, normalized to the peak response to glutamate in the absence of test compound. N is the number of neurons tested. The compounds were tested at concentrations noted below in Table 5. At the said tested concentrations, the peak response to glutamate was reduced compared to controls for all tested compounds.
# [2] = target: TARP γ8 dependent AMPA receptor (GluA1o-g8 fusion channel) (Homo sapiens (Human), UniProt P42261+Q8WXS5); experiment: Calcium flux assay (FLIPR), HEK293 cells expressing GRIA1o-CACNG8 fusion; assay type: cell-based; details: inhibition of calcium flux after 15 μM glutamate; for IC50: read-out: GluR1-γ8 pIC50 (converted)
# Sequence of TARP γ8 dependent AMPA receptor (GluA1o-g8 fusion channel) (P42261 other isoform, or with tags, fused parts or gaps): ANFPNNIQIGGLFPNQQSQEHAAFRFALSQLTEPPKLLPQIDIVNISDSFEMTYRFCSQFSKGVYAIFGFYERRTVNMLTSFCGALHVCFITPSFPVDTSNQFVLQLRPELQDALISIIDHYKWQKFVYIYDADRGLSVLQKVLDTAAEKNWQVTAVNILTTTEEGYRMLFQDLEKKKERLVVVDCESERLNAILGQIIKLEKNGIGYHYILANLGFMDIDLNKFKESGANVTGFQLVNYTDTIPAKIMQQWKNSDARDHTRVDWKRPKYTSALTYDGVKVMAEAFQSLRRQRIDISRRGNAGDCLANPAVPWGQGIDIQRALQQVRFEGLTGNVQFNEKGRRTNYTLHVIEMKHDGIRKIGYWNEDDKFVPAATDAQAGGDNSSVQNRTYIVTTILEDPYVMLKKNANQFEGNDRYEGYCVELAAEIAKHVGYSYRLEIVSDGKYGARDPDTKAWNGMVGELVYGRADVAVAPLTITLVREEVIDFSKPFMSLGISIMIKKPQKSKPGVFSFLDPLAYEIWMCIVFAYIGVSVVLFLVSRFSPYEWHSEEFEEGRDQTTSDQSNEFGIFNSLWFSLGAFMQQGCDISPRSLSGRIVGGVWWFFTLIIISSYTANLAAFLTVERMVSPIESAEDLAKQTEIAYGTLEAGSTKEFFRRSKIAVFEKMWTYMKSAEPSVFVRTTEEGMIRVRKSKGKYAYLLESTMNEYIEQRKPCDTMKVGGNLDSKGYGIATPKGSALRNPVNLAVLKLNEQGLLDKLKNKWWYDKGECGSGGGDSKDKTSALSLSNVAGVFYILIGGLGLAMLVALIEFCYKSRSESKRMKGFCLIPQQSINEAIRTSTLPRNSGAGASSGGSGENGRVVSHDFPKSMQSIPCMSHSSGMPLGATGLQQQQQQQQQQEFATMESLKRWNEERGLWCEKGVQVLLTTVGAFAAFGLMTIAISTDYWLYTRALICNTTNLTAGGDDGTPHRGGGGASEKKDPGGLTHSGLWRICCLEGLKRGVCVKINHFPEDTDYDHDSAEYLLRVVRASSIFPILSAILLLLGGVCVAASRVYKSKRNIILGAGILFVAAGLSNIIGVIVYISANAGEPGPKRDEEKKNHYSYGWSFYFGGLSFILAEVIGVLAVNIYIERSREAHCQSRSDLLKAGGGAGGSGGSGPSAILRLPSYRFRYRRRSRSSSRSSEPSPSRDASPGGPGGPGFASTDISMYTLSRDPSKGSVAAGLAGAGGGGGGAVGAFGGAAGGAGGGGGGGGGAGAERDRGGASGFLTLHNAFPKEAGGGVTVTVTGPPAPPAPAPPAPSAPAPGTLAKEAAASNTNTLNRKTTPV
# Summary of the method: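 Stable HEK293 clone expressing GluA1o-γ8 fusion (1:1 stoichiometry), loaded with Calcium-5/6 dye plus test compound; glutamate-evoked fluorescence normalized to control wells. Concentration-response fitted to four-parameter logistic, midpoint taken as inhibitory potency.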
SMILES,IC50 [2] [nM],peak current (% control) ([1]; 10 μM compound) [%],GluR1-γ8 pIC50 [2],peak current (% control) ([1]; 1 μM compound) [%]
"Cc1cccc(C)c1-c1ccc2[nH]c(=O)[nH]c2c1 [Example 2, 5-(2,6-Dimethylphenyl)-1,3-dihydrobenzimidazol-2-one]",–,70,6.8,–
"COc1cccc(OCC(C)C)c1-c1ccc2[nH]c(=O)[nH]c2c1 [Example 14, 5-(2-Isobutoxy-6-methoxy-phenyl)-1,3-dihydrobenzimidazol-2-one]",31.6,–,–,69
"O=c1[nH]c2ccc(-c3c(Cl)cccc3OC(F)(F)F)cc2[nH]1 [Example 31, 5-[2-Chloro-6-(trifluoromethoxy)phenyl]-1,3-dihydrobenzimidazol-2-one]",–,–,–,61
"O=c1[nH]c2ccc(-c3c(Cl)cccc3C3CC3)cc2[nH]1 [Example 160, 5-(2-Chloro-6-cyclopropyl-phenyl)-1,3-dihydrobenzimidazol-2-one]",–,–,8.2,70
"Cn1cc(-c2cccc(-c3ccc4[nH]c(=O)sc4c3)c2Cl)cn1 [Example 212, 6-(2-Chloro-3-(1-methyl-1H-pyrazol-4-yl)phenyl)benzo[d]thiazol-2(3H)-one]",200,–,–,–
"COC1CCN(c2cccc(-c3ccc4[nH]c(=O)sc4c3)c2Cl)CC1 [Example 213, 6-(2-Chloro-3-(4-methoxypiperidin-1-yl)phenyl)benzo[d]thiazol-2(3H)-one]",2510,–,–,–

# Continued, in another order:
IC50 [2] [nM],SMILES,peak current (% control) ([1]; 10 μM compound) [%],GluR1-γ8 pIC50 [2],peak current (% control) ([1]; 1 μM compound) [%]
63.1,"Cc1cccc(Cl)c1-c1ccc2[nH]c(=O)[nH]c2c1 [Example 36, 5-(2-Chloro-6-methyl-phenyl)-1,3-dihydrobenzimidazol-2-one]",–,–,72
10,"O=c1[nH]c2ccc(-c3c(Cl)ccc(Cl)c3Cl)cc2[nH]1 [Example 66, 5-(2,3,6-Trichlorophenyl)-1,3-dihydrobenzimidazol-2-one]",–,–,86
15.8,N#CCc1cccc(OC(F)(F)F)c1-c1ccc2[nH]c(=O)[nH]c2c1 [Example 123],–,–,59
12.6,"N#CCc1cccc(Cl)c1-c1ccc2[nH]c(=O)[nH]c2c1 [Example 124, 2-[3-Chloro-2-(2-oxo-1,3-dihydrobenzimidazol-5-yl)phenyl]acetonitrile]",–,–,63
63.1,"O=c1[nH]c2cc(F)c(-c3c(Cl)cccc3OC(F)(F)F)cc2s1 [Example 210, 6-[2-Chloro-6-(trifluoromethoxy)phenyl]-5-fluoro-3H-1,3-benzothiazol-2-one]",–,–,–
0.1,"Cc1cc(-c2c(Cl)cccc2OC(F)(F)F)cc2[nH]c(=O)[nH]c12 [Example 211, 6-(2-Chloro-6-(trifluoromethoxy)phenyl)-4-methyl-1H-benzo[d]imidazol-2(3H)-one]",–,–,–
2.51,"O=c1[nH]c2cc(-c3c(Cl)cccc3OC(F)(F)F)cc(F)c2[nH]1 [Example 214, 6-(2-chloro-6-(trifluoromethoxy)phenyl)-4-fluoro-1,3-dihydro-2H-benzo[d]imidazol-2-one]",–,–,–
